Format in all cases: cell-based
Assay [1] concerns K562. Kind of assay: Solid tumour and haematological malignancy assay (CellTiterGlo). Particulars: Homo sapiens; for pIC50: read-out: IC50 (absolute IC50); for Emax: read-out: MI %. As for the experimental part: (§1) In vitro viability assay were performed to assess the effects of compounds on cell viability in selected cell lines over 72 hr using the CellTiterGlo (CTG, Promega-G7573) assay. […] Cell viability assay using CellTiterGlo in 96-well plate were performed. Compound treatment 72 hrs, standard growth conditions, duplicates. Compounds were dissolved to 40 mM with thawed 100%. […] After compounds were dissolved in media, media containing compounds were warmed to 37° C. in incubator and then compounds in media were added to cell plates ([…]) in duplicates. […] All compound solubilities were checked and recorded again, then the plates were transferred to CO2 tissue culture incubator immediately and incubated for 3 days. DMSO final concentration is 0.5%.

The subject of assay [2] is KG-1. The assay is described as above. The settings on record: Homo sapiens; for pIC50: read-out: IC50 (absolute IC50); for Emax: read-out: MI %. The method, then:
as §1

The subject of assay [3] is MCF7. The description is as above. The settings on record: Homo sapiens; for pIC50: read-out: IC50 (absolute IC50); for Emax: read-out: MI %. As for the experimental part: as §1
The subject of assay [4] is HT29. The assay is described as above. Particulars: Homo sapiens; for pIC50: read-out: IC50 (absolute IC50); for Emax: read-out: MI %. The method, then: as §1
The subject of assay [5] is CCRFCEM. The description is as above. The settings on record: Homo sapiens, CCRF-CEM; for pIC50: read-out: IC50 (absolute IC50); for Emax: read-out: MI %. As for the experimental part:
as §1

Assay [6] relates to MOLT-4. Described as above. The settings on record: Homo sapiens; for pIC50: read-out: IC50 (absolute IC50); for Emax: read-out: MI %. The method, then:
(§2) In vitro viability assay were performed to assess the effects of compounds on cell viability in selected cell lines over 72 hr using the CellTiterGlo (CTG, Promega-G7573) assay. The tests were performed in duplicates with treatment of compounds at 9 points, 3.16 folds titration in 96 well plates over ˜72 hr. The compound starting concentrations were […]. Cell viability assay using CellTiterGlo in 96-well plate were performed. Compound treatment 72 hrs, standard growth conditions, duplicates. Compounds were dissolved to 40 mM with thawed […]. Compounds were serially diluted at 3.16 fold in thawed DMSO, and warmed to 37° C. before being dissolved in media ([…]). After compounds were dissolved in media, media containing compounds were warmed to 37° C. in incubator and then compounds in media were added to cell plates ([…]) in duplicates. The compounds' final concentrations were from […] to 19.9 nM. All compound solubilities were checked and recorded again, then the plates were transferred to CO2 tissue culture incubator immediately and incubated for 3 days. DMSO final concentration is 0.5%.

Assay [7] concerns RL. Described as above. The settings on record: Homo sapiens; for pIC50: read-out: IC50 (absolute IC50); for Emax: read-out: MI %. The method, then: as §2
For assay [8], the system named is NCI-H929. Described as above. Particulars: Homo sapiens; for pIC50: read-out: IC50 (absolute IC50); for Emax: read-out: MI %. As for the experimental part: as §2
In assay [9] the test system is MOLT-4. Kind of assay: CellTiterGlo viability assay, initial screening. Particulars: Homo sapiens, read-out: IC50 (relative IC50). The method, then: (§3) In vitro viability assays were performed to assess the effects of compounds on cell viability in 7 selected cell lines over 72 hr using the CellTiterGlo (CTG, Promega-G7573) assay. The tests were performed in duplicates with treatment of compounds at 9 points, 3.16 folds titration in 96 well plates over ˜72 hr. The compound starting concentrations were […]. Cell viability assay using CellTiterGlo in 96-well plate were performed. The compound treatment was 72 hrs, under standard growth conditions, and in duplicate. Compounds were dissolved to 40 mM with thawed […]. Compounds were serially diluted at 3.16 fold in thawed DMSO, and warmed to 37° C. before being dissolved in media (2 μl+200 μl). After compounds were dissolved in media (media was also warmed to 37° C.). Media containing compounds were warmed to 37° C. in incubator and then compounds in media were added to cell plates (50 μl+50 μl), in duplicates. The compounds final concentrations were from […] to 19.9 nM. All compound solubilities were checked and recorded again, then the plates were transferred to CO2 tissue culture incubator immediately and incubated for 3 days. DMSO final concentration is 0.5%.
On the technique in general: In ATP-based viability assays light output follows the ATP content of the culture.

Assay [10] deals with K562. Kind of assay: CellTiterGlo viability assay, initial screening. The settings on record: Homo sapiens, read-out: IC50 (relative IC50). The method, then:
as §3

Assay [11] concerns KG-1. The assay can be described thus: CellTiterGlo viability assay, initial screening. Particulars: Homo sapiens, read-out: IC50 (relative IC50). As for the experimental part: as §3
Assay [12] concerns MCF-7. The assay can be described thus: CellTiterGlo viability assay, initial screening. Particulars: Homo sapiens, read-out: IC50 (relative IC50). The method, then:
as §3

Assay [13] concerns HepG2. Kind of assay: CellTiterGlo viability assay, initial screening. The settings on record: Homo sapiens, read-out: IC50 (relative IC50). The method, then:
as §3

Assay [14] concerns CCRF-CEM. Kind of assay: CellTiterGlo viability assay, initial screening. The settings on record: Homo sapiens, read-out: IC50 (relative IC50). The method, then: as §3
In assay [15] the test system is HL-60. Kind of assay: CellTiterGlo viability assay, initial screening. Particulars: Homo sapiens, read-out: IC50 (relative IC50). The method, then:
as §3

Molecules are shown by their SMILES. pIC50: −log10 of the molar value. Like-named read-outs stand apart in the source and are kept apart here.

One may read the pIC50 as −log10 of the IC50, conventionally taken in molar units.

As to `CCCCCCOC(=O)[C@H](C)NP(=O)(OC[C@@H]1C[C@H](O)[C@H](n2cnc3c(N)nc(OC)nc32)O1)Oc1ccccc1` (stereo partly drawn) [Compound N, 2-O-methyl-3′-deoxyadenosine-5′-O-[phenyl(1-hexyloxy-L-alaninyl)] phosphate], the negative-log IC50 (pIC50) was 4.00 to 4.82 in assay [1] (K562, 72 h); 4.00 to 4.82 in assay [2] (KG-1, 72 h); 4.00 to 4.82 in [3] (MCF7, 72 h); 4.00 to 4.82 in assay [4] (HT-29, 72 h); 4.00 to 4.82 in assay [5] (72 h); 4.00 to 4.82 in [6] (MOLT-4, 72 h). Also, the pIC50 in [7] (72 h) was 4.00 to 4.82; in [8] (NCI-H929, 72 h), 4.00 to 4.82. The Emax came to 78% in assay [1] (K562, 72 h); 96% in assay [2] (KG-1, 72 h); 73% in [3] (MCF7, 72 h); 69% in [4] (HT-29, 72 h); 93% in [5] (72 h); 97% in assay [6] (MOLT-4, 72 h). For the same compound, the Emax in assay [7] (72 h) stood at 88%; in [8] (NCI-H929, 72 h) it was 99%.
Turning to `COc1nc(N)c2ncn([C@@H]3O[C@H](COP(=O)(N[C@@H](C)C(=O)OCc4ccccc4)Oc4cccc5ccccc45)C[C@H]3O)c2n1` (some centres unmarked) [K], the negative-log IC50 (pIC50) is 4.00 to 4.82 in [1] (K562, 72 h); 4.00 to 4.82 in assay [2] (KG-1, 72 h); 4.82 to 5.30 in assay [3] (MCF7, 72 h); 4.00 to 4.82 in [4] (HT-29, 72 h); 4.82 to 5.30 in [5] (72 h); 4.00 to 4.82 in assay [6] (MOLT-4, 72 h). For the same compound, the pIC50 in assay [7] (72 h) is 4.00 to 4.82; in assay [8] (NCI-H929, 72 h) it was 4.82 to 5.30.
`C[C@H](NP(=O)(Oc1cccc2ccccc12)O[C@@H]1C[C@@H](CO)O[C@H]1n1cnc2c(N)ncnc21)C(=O)OCc1ccccc1` (stereo partly drawn) [Compound I, (2S)-benzyl 2-(((((2R,3R,5S)-2-(6-amino-9H-purin-9-yl)-5-(hydroxymethyl)tetrahydro-furan-3-yl)oxy)(naphthalen-1-yloxy)phosphoryl)amino)propanoate]: the pIC50 in assay [9] (MOLT-4, 72 h) was 4.00 to 4.82; in [10] (K562, 72 h), 4.00 to 4.82; in assay [11] (KG-1, 72 h), 4.00 to 4.82; in [12] (MCF7, 72 h) it was 4.82 to 5.30; in [13] (HepG2, 72 h), 4.00 to 4.82; in [14] (72 h) it was 4.00 to 4.82. For the same compound, the pIC50 in assay [15] (HL-60, 72 h) is 4.00 to 4.82.
Turning to `COc1nc(N)c2ncn([C@@H]3O[C@H](CO)C[C@H]3O)c2n1` [2-OMe-Cordycepin, 3′-deoxy-2-methoxyadenosine, reference compound], the pIC50 in assay [1] (K562, 72 hr) was less than 4.00; in [2] (KG-1, 72 hr), less than 4.00; in [3] (MCF7, 72 hr), less than 4.00; in assay [4] (HT-29, HT29, 72 hr), less than 4.00; in assay [5] (CCRFCEM, 72 hr), less than 4.00; in [6] (MOLT-4, 72 hr) it was less than 4.00. The negative-log IC50 (pIC50) in assay [7] (72 hr) was less than 4.00; in [8] (NCI-H929, 72 hr), less than 4.00. In addition, the Emax is 40% in assay [1] (K562, 72 hr); 1% in assay [2] (KG-1, 72 hr); 8% in assay [3] (MCF7, 72 hr); 19% in [4] (HT-29, HT29, 72 hr); -4% in [5] (CCRFCEM, 72 hr); 1% in [6] (MOLT-4, 72 hr). The Emax in [7] (72 hr) came out at 0%; in assay [8] (NCI-H929, 72 hr), 51%.
Turning to `CCCCCOC(=O)[C@H](CC(C)C)NP(=O)(OC[C@@H]1C[C@H](O)[C@H](n2cnc3c(N)nc(OC)nc32)O1)Oc1cccc2ccccc12` (some centres unmarked) [Compound M], the pIC50 in [1] (K562, 72 h) was 4.82 to 5.30; in [2] (KG-1, 72 h), 4.00 to 4.82; in assay [3] (MCF7, 72 h) it was 4.00 to 4.82; in assay [4] (HT-29, 72 h), 4.00 to 4.82; in assay [5] (72 h), 4.82 to 5.30; in assay [6] (MOLT-4, 72 h), 4.82 to 5.30. Further, the negative-log IC50 (pIC50) was 4.82 to 5.30 in assay [7] (72 h) and 4.82 to 5.30 in [8] (NCI-H929, 72 h). Besides, the Emax in [1] (K562, 72 h) amounted to 100%; in [2] (KG-1, 72 h) it was 102%; in assay [3] (MCF7, 72 h), 100%; in [4] (HT-29, 72 h) it was 100%; in [5] (72 h), 100%; in assay [6] (MOLT-4, 72 h) it was 101%. Besides, the Emax was 100% in assay [7] (72 h) and 99% in [8] (NCI-H929, 72 h).
For `C[C@H](NP(=O)(N[C@@H](C)C(=O)OCc1ccccc1)OC[C@@H]1CC(O)[C@H](n2cnc3c(N)ncnc32)O1)C(=O)OCc1ccccc1` (stereo in doubt) [Compound J, Benzyl 2-[({[5-(6-amino-9H-purin-9-yl)-4-hydroxyoxolan-2-yl]methoxy}({[1-(benzyloxy)-1-oxopropan-2-yl]amino})phosphoryl)amino]propanoate], the pIC50 in assay [9] (MOLT-4, 72 hr) is 5.30 to 7.00; in assay [10] (K562, 72 hr) it was 4.00 to 4.82; in assay [11] (KG-1, 72 hr), 4.00 to 4.82; in [12] (MCF7, MCF-7, 72 hr), 4.00 to 4.82; in assay [13] (HepG2, 72 hr), 4.00 to 4.82; in [14] (72 hr), 4.00 to 4.82. Also, the pIC50 in [15] (HL-60, 72 hr) is 4.00 to 4.82.
Turning to `C[C@H](NP(=O)(Oc1ccccc1)O[C@@H]1C[C@@H](CO)O[C@H]1n1cnc2c(N)ncnc21)C(=O)OCc1ccccc1` (stereo partly drawn) [G, (2S)-benzyl 2-(((((2R,3R,5S)-2-(6-amino-9H-purin-9-yl)-5-(hydroxymethyl)tetrahydro-furan-3-yl)oxy)(phenoxy)phosphoryl)amino)propanoate], the pIC50 was 4.00 to 4.82 in [9] (MOLT-4, 72 h); 4.00 to 4.82 in assay [10] (K562, 72 h); 4.00 to 4.82 in assay [11] (KG-1, 72 h); 4.82 to 5.30 in [12] (MCF7, 72 h); 4.00 to 4.82 in assay [13] (HepG2, 72 h); 4.00 to 4.82 in [14] (72 h). For the same compound, in assay [15] (HL-60, 72 h), the pIC50 was 4.00 to 4.82.

The record behind these values is patent US10570168B2, “2′ and/or 5′ amino-acid ester phosphoramidate 3′-deoxy adenosine derivatives as anti- cancer compounds” (NuCana plc, priority 2014, dated 2020).
